Assay results as given in patent US20240238265A1 (priority 2020, published 2024).

Key:
[1] = tested on: pseudotyped VSV expressing MARV glycoprotein; experiment: microbe, parasite or virus in culture; type: cell-based, Marburg virus (MARV); conditions: Vesicular stomatitis virus, Vero, 24 h, read-out: EC50 (uM) Pseudotype Assays MARV
[2] = tested on: pseudotyped VSV expressing SUDV glycoprotein; experiment: microbe, parasite or virus in culture; type: cell-based, Sudan virus (SUDV); conditions: Vesicular stomatitis virus, Vero, 24 h, read-out: EC50 (uM) Pseudotype Assays SUDV
in vitro = conditions: African green monkey
[3] = 1 h, pH 7.4
[4] = 1 h, pH 7.4; remark: listed apart in the source
[5] = 1 h, pH 7.4; remark: listed apart in the source
[6] = 1 h, pH 7.4; remark: listed apart in the source
[7] = tested on: pseudotyped VSV expressing BDBV glycoprotein; experiment: microbe, parasite or virus in culture; type: cell-based, Bundibugyo virus (BDBV); conditions: Vesicular stomatitis virus, Vero, 24 h, read-out: EC50 (uM) Pseudotype Assays BDBV
[8] = tested on: pseudotyped VSV expressing EBOV glycoprotein; experiment: microbe, parasite or virus in culture; type: cell-based, Ebola virus (EBOV); conditions: Zaire ebolavirus, Vero, 24 h, read-out: EC50 (uM) Pseudotype Assays EBOV
[9] = 1 h, pH 7.4; remark: listed apart in the source
[10] = 1 h, pH 7.4; remark: listed apart in the source
SUDV-Gulu = experiment: microbe, parasite or virus in culture; type: cell-based, Sudan virus (SUDV)
EBOV-Zaire = experiment: microbe, parasite or virus in culture; type: cell-based, Ebola virus (EBOV)
WT EBOV-Mayinga = experiment: microbe, parasite or virus in culture; type: cell-based, Ebola virus (EBOV)
EBOV (strain kikwit) = experiment: microbe, parasite or virus in culture; type: cell-based, Ebola virus (EBOV)
SUDV (strain Gulu) = experiment: microbe, parasite or virus in culture; type: cell-based, Sudan virus (SUDV)

| SMILES | EC50 [1] | EC50 [2] | CC50 (in vitro) | Percent parent compound remaining at 60 minutes in liver microsomes, Rat [3] | Percent parent compound remaining at 60 minutes in liver microsomes, Monkey [4] | Percent parent compound remaining at 60 minutes in liver microsomes, Dog [5] | Percent parent compound remaining at 60 minutes in liver microsomes, Human [6] | EC50 [7] | EC50 [8] | Percent parent compound remaining at 60 minutes in liver microsomes, Mouse [9] | Percent parent compound remaining at 60 minutes in liver microsomes, Guinea Pig [10] | further results |
| --- | --- | --- | --- | --- | --- | --- | --- | --- | --- | --- | --- | --- |
| CC1C2CC3(C(=O)N[C@H]4CC[C@H](N)CC4)CC1CC(c1ccccc1)(C2)C3 (stereo partly drawn) [Example F1, trans-N-(4-aminocyclohexyl)-6-methyl-3-phenyladamantane-1-carboxamide] | > 3 µM | 0.21 µM | 13300 nM | 99% | 92% | 82% | 91% | 0.065 µM | 0.027 µM | 83% | 79% |  |
| CCC=C1C2CC3(C(=S)N[C@H]4CC[C@H](N)CC4)CC1CC(c1ccccc1)(C2)C3 (relative stereo) [Example D2, trans-N-(4-aminocyclohexyl)-3-phenyl-6-propylideneadamantane-1-carbothioamide] |  | 0.072 µM | 1780 nM |  | 100% |  | 100% |  | 0.051 µM |  | 100% | SUDV-Gulu SI50 (CC50/EC50) (SUDV-Gulu): 78; EC50 (SUDV-Gulu; Sudan ebolavirus, Vero, read-out: SUDV-Gulu EC50 (uM)): 0.11 µM; EBOV-Zaire SI50 (CC50/EC50) (EBOV-Zaire): 3.3; EC50 (EBOV-Zaire; Zaire ebolavirus, Vero, read-out: EBOV-Zaire EC50 (uM)): 2.6 µM |
| CCC1C2CC3(C(=O)N[C@H]4CC[C@H](N)CC4)CC1CC(c1ccccc1)(C2)C3 (stereo partly shown) [Example F2] | 3.1 µM | 0.27 µM | 12600 nM | 86.5% | 100% | 80% | 85% | 0.03 µM | 0.011 µM | 48% | 68% | WT EBOV-Mayinga SI50 (CC50/EC50) (WT EBOV-Mayinga): 706.84; WT EBOV-Mayinga SI90 (CC50/EC90) (WT EBOV-Mayinga): 209.99; EC50 (WT EBOV-Mayinga; Zaire ebolavirus, read-out: WT EBOV-Mayinga EC50 (uM)): 0.014 µM; EC90 (WT EBOV-Mayinga; Zaire ebolavirus, read-out: WT EBOV-Mayinga EC90 (uM)): 0.048 µM; EBOV-Kikwit SI50 (CC50/EC50) (EBOV (strain kikwit)): 90.33; EC50 (EBOV (strain kikwit); Zaire ebolavirus, HeLa, read-out: EBOV-Kikwit EC50 (uM)): 0.11 µM; SUDV-Gulu SI50 (CC50/EC50) (SUDV (strain Gulu)): 291.26; EC50 (SUDV (strain Gulu); Sudan ebolavirus, HeLa, read-out: SUDV-Gulu EC50 (uM)): 0.039 µM |
